≈ marks a conversion by molar mass, not a printed value. Where “and” joins values, the source holds several entries; their conditions need not be identical. Identical values can stand only once. Blank lines part the entries; values can stand above or below the compound they belong to.
Tests used:
Assay in all cases: ≥ marks a high value that may be exact or a test limit, other limits are often not marked, values filed in µg/mL are converted to µM
[1] = system: Pseudomonas aeruginosa 253
[2] = system: Pseudomonas aeruginosa 910
[3] = system: Pseudomonas aeruginosa 919
[4] = system: Pseudomonas aeruginosa PAO1
[5] = system: Candida albicans ATCC 90028
[6] = system: Enterococcus faecium ATCC 29212
[7] = system: Escherichia coli O157:H7 ATCC 43895
[8] = system: Malassezia furfur KCTC 7744
[9] = system: Pseudomonas aeruginosa ATCC 27853
[10] = system: Staphylococcus aureus ATCC 25923
[11] = system: Streptococcus mutans KCTC 3065
[12] = system: Trichosporon beigelii KCTC 7707
[13] = system: Vibrio vulnificus ATCC 29307
[14] = system: Escherichia coli NBRC 14237
[15] = system: Pseudomonas aeruginosa NBRC 12582
[16] = system: Saccharomyces cerevisiae NBRC 10217
[17] = system: Staphylococcus aureus NBRC 12732
[18] = system: Escherichia coli ATCC 25922
[19] = system: Klebsiella pneumoniae ATCC 13883
[20] = system: Staphylococcus aureus USA 300 LAC
[21] = system: Aspergillus oryzae NBRC 100959
[22] = system: Candida viswanathii NBRC 10321
[23] = system: Escherichia coli NBRC 3972
[24] = system: Micrococcus luteus NBRC 3333
[25] = system: Staphylococcus epidermidis NBRC 12993
[26] = system: Bacillus subtilis ATCC 6633
[27] = system: Candida albicans ATCC 10231
[28] = system: Candida parapsilosis ATCC 22019
Cryptococcus neoformans = system: Cryptococcus neoformans
[29] = system: Escherichia coli ATCC 9637
[30] = system: Klebsiella pneumoniae ATCC 27736
[31] = system: Pseudomonas aeruginosa ATCC BAA-427
[32] = system: Staphylococcus aureus ATCC 29213
[33] = system: Staphylococcus aureus ATCC 33592
[34] = system: Staphylococcus aureus ATCC 700698
[35] = system: Staphylococcus aureus ATCC 700699
[36] = system: Staphylococcus aureus ATCC BAA-44
Bacillus subtilis 168 HT = system: Bacillus subtilis 168 HT
[37] = system: Escherichia coli K12 MG1655
[38] = system: Staphylococcus aureus ST88
[39] = system: Staphylococcus haemolyticus 527
[40] = system: Escherichia coli ATCC 9723H
Escherichia coli NDM = system: Escherichia coli NDM
[41] = system: Staphylococcus aureus ATCC 6538P

Structure (SMILES): CC(C)C[C@H](N)C(=O)N[C@@H](CCCN=C(N)N)C(=O)N[C@@H](CCC(N)=O)C(=O)N[C@@H](CO)C(=O)N[C@@H](CCC(N)=O)C(=O)N[C@@H](Cc1ccccc1)C(=O)N[C@H](C(=O)NCC(=O)N[C@@H](CO)C(=O)N[C@@H](CCCN=C(N)N)C(N)=O)C(C)C [LRQSQFVGSR]
MIC [5]: ≥ 42.5 µM | MIC [6]: 21.3 µM (≈ 25.1 µg/mL) | MIC [7]: 10.6 µM (≈ 12.5 µg/mL) | MIC [8]: ≥ 42.5 µM | MIC [9]: 21.3 µM (≈ 25.1 µg/mL) | MIC [10]: 42.5 µM (≈ 50 µg/mL) | MIC [11]: 21.3 µM (≈ 25.1 µg/mL) | MIC [12]: 21.3 µM (≈ 25.1 µg/mL) | MIC [13]: ≥ 42.5 µM

Structure (SMILES): CSCC[C@H](NC(=O)CNC(=O)[C@@H](NC(=O)[C@H](CCCCN)NC(=O)[C@H](C)NC(=O)CNC(=O)[C@@H](NC(=O)[C@H](CCCCN)NC(=O)[C@H](C)NC(=O)[C@H](C)NC(=O)[C@H](CCCCN)NC(=O)[C@H](CCCCN)NC(=O)[C@H](CC(C)C)NC(=O)[C@H](Cc1ccccc1)NC(=O)[C@H](CC(N)=O)NC(=O)[C@H](CC(C)C)NC(=O)[C@H](Cc1ccccc1)NC(=O)[C@H](CCCCN)NC(=O)CNC(=O)CNC(=O)[C@@H](N)CCCCN)C(C)C)C(C)C)C(=O)N[C@@H](C)C(=O)N[C@@H](C)C(=O)N[C@@H](CC(C)C)C(=O)NCC(=O)O [KGGKFLNFLKKAAKVGAKVGMAALG]
MIC [14]: 3.12 µM (≈ 7.83 µg/mL) | MIC [15]: 6.25 µM (≈ 15.7 µg/mL) | MIC [16]: 6.25 µM (≈ 15.7 µg/mL) | MIC [17]: 3.12 µM (≈ 7.83 µg/mL)

Structure (SMILES): CC[C@H](C)[C@H](NC(=O)[C@@H](NC(=O)[C@@H]1CCCN1C(=O)[C@H](CC(C)C)NC(=O)[C@H](Cc1ccccc1)NC(=O)[C@H](CCCCN)NC(=O)[C@H](CC(N)=O)NC(=O)[C@H](C)NC(=O)[C@H](CC(C)C)NC(=O)[C@@H]1CCCN1C(=O)[C@H](CC(C)C)NC(=O)[C@@H](NC(=O)[C@H](CCCN=C(N)N)NC(=O)[C@@H]1CCCN1C(=O)[C@H](Cc1ccccc1)NC(=O)[C@@H](N)Cc1ccccc1)C(C)C)[C@@H](C)O)C(=O)N[C@@H](Cc1ccc(O)cc1)C(=O)N[C@@H](CS)C(=O)N[C@@H](C)C(=O)N[C@@H](CC(C)C)C(=O)N1CCC[C@H]1C(=O)N[C@@H](CCCCN)C(=O)N[C@@H](CO)C(=O)N[C@H](C(=O)NCC(=O)N[C@@H](CC(N)=O)C(=O)O)C(C)C [FFPRVLPLANKFLPTIYCALPKSVGN]
MIC [18]: 6 µM (≈ 17.4 µg/mL) | MIC [40]: 15.6 µM (≈ 45.2 µg/mL) | MIC (Escherichia coli NDM): 6 µM (≈ 17.4 µg/mL) | MIC [41]: ≥ 88 µM

The next lines start with results.

MIC [1]: 16 µM (≈ 30.2 µg/mL) | MIC [2]: 8 µM (≈ 15.1 µg/mL) | MIC [3]: ≥ 32 µM | MIC [4]: 4 µM (≈ 7.56 µg/mL)
Structure (SMILES): CC[C@H](C)[C@H](NC(=O)[C@@H](N)Cc1ccccc1)C(=O)N[C@@H](CCCCN)C(=O)N[C@@H](Cc1c[nH]c2ccccc12)C(=O)N[C@@H](CCCCN)C(=O)N[C@@H](CCCCN)C(=O)N[C@@H](CCCN=C(N)N)C(=O)N[C@@H](Cc1c[nH]c2ccccc12)C(=O)N[C@@H](Cc1c[nH]c2ccccc12)C(=O)N[C@@H](CCCCN)C(=O)N[C@@H](CCCCN)C(=O)N[C@@H](CCCN=C(N)N)C(=O)N[C@H](C(N)=O)[C@@H](C)O [FIKWKKRWWKKRT]

MIC [18]: 12.5 µM (≈ 15.9 µg/mL) | MIC [19]: 17.7 µM (≈ 22.5 µg/mL) | MIC [20]: 3.1 µM (≈ 3.94 µg/mL)
Structure (SMILES): CC[C@H](C)[C@H](N)C(=O)N[C@@H](Cc1c[nH]c2ccccc12)C(=O)N[C@@H](Cc1c[nH]c2ccccc12)C(=O)N[C@@H](Cc1c[nH]c2ccccc12)C(=O)N[C@@H](Cc1c[nH]c2ccccc12)C(=O)N[C@@H](CC(C)C)C(=O)N[C@@H](CCCN=C(N)N)C(=O)N[C@@H](CCCCN)C(N)=O [IWWWWLRK]

MIC [21]: 14.9 µM (≈ 25 µg/mL) | MIC [22]: 14.9 µM (≈ 25 µg/mL) | MIC [23]: ≥ 239 µM | MIC [24]: 29.8 µM (≈ 50 µg/mL) | MIC [25]: 14.9 µM (≈ 25 µg/mL)
Structure (SMILES): CSCC[C@H](NC(=O)[C@H](CCCCN)NC(=O)[C@@H](N)CCCN=C(N)N)C(=O)N[C@@H](CCCCN)C(=O)N[C@@H](CCCN=C(N)N)C(=O)N[C@H](C(=O)N[C@@H](Cc1c[nH]c2ccccc12)C(=O)N[C@@H](CCCCN)C(=O)N[C@@H](CCCN=C(N)N)C(=O)N[C@@H](Cc1ccccc1)C(=O)N[C@@H](CCCCN)C(=O)N[C@@H](CC(C)C)C(=O)O)C(C)C [RKMKRVWKRFKL]

MIC [26]: 3.8 µM (≈ 6.16 µg/mL) | MIC [27]: 6 µM (≈ 9.73 µg/mL) | MIC [28]: 6 µM (≈ 9.73 µg/mL) | MIC (Cryptococcus neoformans): 6 µM (≈ 9.73 µg/mL) | MIC [18]: 1.9 µM (≈ 3.08 µg/mL) | MIC [29]: 6.25 µM (≈ 10.1 µg/mL) | MIC [30]: 3.8 µM (≈ 6.16 µg/mL) | MIC [31]: 6.8 µM (≈ 11 µg/mL) | MIC [10]: 3.8 µM and 7.6 µM | MIC [32]: 12 µM (≈ 19.5 µg/mL) | MIC [33]: 12 µM (≈ 19.5 µg/mL) | MIC [34]: 12 µM (≈ 19.5 µg/mL) | MIC [35]: 12 µM (≈ 19.5 µg/mL) | MIC [36]: 12 µM (≈ 19.5 µg/mL)
Structure (SMILES): CC[C@H](C)[C@H](NC(=O)[C@H](CCCN=C(N)N)NC(=O)CNC(=O)[C@H](CC(C)C)NC(=O)[C@H](CCCCN)NC(=O)[C@H](CCCCN)NC(=O)[C@H](Cc1c[nH]c2ccccc12)NC(=O)[C@H](Cc1ccccc1)NC(=O)[C@H](CO)NC(=O)[C@H](CCCCN)NC(=O)[C@@H](NC(=O)[C@@H](N)Cc1ccccc1)C(C)C)C(=O)N[C@@H](CC(C)C)C(N)=O [FVKSFWKKLGRIL]

MIC (Bacillus subtilis 168 HT): 5.3 µM (≈ 16.3 µg/mL) | MIC [37]: 10.5 µM (≈ 32.3 µg/mL) | MIC [38]: ≥ 100 µM
Structure (SMILES): CC[C@H](C)[C@H](N)C(=O)N[C@H](C(=O)N[C@@H](CCCCN)C(=O)N[C@@H](CCCN=C(N)N)C(=O)N[C@@H](Cc1ccccc1)C(=O)N[C@@H](Cc1ccccc1)C(=O)N[C@@H](CCCN=C(N)N)C(=O)N[C@H](C(=O)N[C@@H](CO)C(=O)N[C@@H](Cc1ccc(O)cc1)C(=O)N[C@@H](CCCCN)C(=O)N[C@@H](CC(C)C)C(=O)N[C@@H](CCC(N)=O)C(=O)N[C@@H](CO)C(=O)N[C@@H](CC(C)C)C(=O)N[C@@H](CCCCN)C(=O)N[C@H](C(=O)N[C@H](C(=O)N[C@@H](CCCCN)C(=O)NCC(=O)N[C@@H](CCCCN)C(=O)N[C@@H](CCCN=C(N)N)C(=O)N[C@H](C(=O)N[C@@H](Cc1ccccc1)C(=O)N[C@H](C(=O)O)[C@@H](C)O)[C@@H](C)O)[C@@H](C)CC)[C@@H](C)CC)[C@@H](C)CC)C(C)C [IVKRFFRISYKLQSLKIIKGKRTFT]
MIC [39]: 5.3 µM (≈ 16.3 µg/mL)

From DBAASP
